ChEMBL document CHEMBL3991601, “The target landscape of clinical kinase drugs” (Science, 2017)
Calls of active or inactive are those of the source. For most assays here, no stated cut-off is given here; in the data, actives have a measured Kd and inactives only a lower limit.

Key:
[1] = target: Mitogen-activated protein kinase kinase kinase 20 (Homo sapiens, UniProt Q9NYL2)
[2] = target: T1, cGMP-dependent protein kinase 1 (Homo sapiens, UniProt Q13976)
T1 sequence (Q13976 whole entry): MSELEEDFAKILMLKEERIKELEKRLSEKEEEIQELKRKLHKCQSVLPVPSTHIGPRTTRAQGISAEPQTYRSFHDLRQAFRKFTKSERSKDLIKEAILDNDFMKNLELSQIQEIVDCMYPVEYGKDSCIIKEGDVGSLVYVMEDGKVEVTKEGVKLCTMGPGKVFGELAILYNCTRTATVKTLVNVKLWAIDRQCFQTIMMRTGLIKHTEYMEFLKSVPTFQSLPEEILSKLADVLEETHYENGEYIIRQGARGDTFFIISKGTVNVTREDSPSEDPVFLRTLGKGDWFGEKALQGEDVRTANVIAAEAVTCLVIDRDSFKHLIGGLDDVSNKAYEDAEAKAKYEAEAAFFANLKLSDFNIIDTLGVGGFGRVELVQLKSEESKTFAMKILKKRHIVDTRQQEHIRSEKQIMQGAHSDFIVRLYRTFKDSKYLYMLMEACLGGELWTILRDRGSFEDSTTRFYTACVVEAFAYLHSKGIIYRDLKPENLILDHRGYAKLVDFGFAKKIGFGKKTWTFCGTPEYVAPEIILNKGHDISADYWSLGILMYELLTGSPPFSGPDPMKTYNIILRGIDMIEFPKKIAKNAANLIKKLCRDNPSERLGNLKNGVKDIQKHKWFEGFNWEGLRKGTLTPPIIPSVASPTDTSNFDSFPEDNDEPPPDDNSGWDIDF

[3] = target: 26S proteasome regulatory subunit 6B (Homo sapiens, UniProt P43686)
[4] = target: Casein kinase I isoform alpha (Homo sapiens, UniProt P48729)
[5] = target: T2, Non-receptor tyrosine-protein kinase TNK1 (Homo sapiens, UniProt Q13470)
T2 sequence (Q13470 whole entry): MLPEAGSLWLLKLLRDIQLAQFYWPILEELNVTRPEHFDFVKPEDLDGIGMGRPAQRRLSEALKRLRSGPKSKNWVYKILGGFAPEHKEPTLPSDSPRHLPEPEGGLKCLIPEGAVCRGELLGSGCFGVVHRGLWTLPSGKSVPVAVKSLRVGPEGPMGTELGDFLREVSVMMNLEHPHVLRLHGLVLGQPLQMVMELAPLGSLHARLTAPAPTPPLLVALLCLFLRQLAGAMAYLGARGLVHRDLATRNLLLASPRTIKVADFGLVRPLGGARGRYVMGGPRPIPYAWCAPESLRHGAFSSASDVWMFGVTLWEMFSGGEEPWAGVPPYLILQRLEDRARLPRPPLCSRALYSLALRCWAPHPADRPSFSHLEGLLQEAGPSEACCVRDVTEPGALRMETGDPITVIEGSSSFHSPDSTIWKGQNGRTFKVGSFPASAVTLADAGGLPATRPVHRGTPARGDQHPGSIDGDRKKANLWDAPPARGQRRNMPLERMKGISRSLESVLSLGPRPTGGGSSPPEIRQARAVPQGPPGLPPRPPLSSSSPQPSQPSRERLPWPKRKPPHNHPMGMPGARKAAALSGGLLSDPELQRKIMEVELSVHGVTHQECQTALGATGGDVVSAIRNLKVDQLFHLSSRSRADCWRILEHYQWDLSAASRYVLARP

TGF-beta receptor type-1 = target: T3, TGF-beta receptor type-1 (Homo sapiens, UniProt P36897)
T3 sequence (P36897 whole entry): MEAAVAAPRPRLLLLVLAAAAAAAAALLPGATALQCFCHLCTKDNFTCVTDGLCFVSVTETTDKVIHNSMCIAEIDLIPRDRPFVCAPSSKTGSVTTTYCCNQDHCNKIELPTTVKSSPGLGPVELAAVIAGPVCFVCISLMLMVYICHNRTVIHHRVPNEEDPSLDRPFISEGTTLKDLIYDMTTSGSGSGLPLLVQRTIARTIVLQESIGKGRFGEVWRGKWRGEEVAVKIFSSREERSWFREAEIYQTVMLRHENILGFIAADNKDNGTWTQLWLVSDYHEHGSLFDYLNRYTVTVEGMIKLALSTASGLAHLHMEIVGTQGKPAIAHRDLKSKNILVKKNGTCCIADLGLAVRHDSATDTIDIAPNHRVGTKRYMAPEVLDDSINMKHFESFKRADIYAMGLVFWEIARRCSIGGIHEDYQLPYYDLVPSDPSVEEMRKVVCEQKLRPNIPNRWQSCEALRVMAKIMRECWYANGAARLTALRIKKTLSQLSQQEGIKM

[6] = target: T4, DNA replication licensing factor MCM4 (Homo sapiens, UniProt P33991)
T4 sequence (P33991 whole entry): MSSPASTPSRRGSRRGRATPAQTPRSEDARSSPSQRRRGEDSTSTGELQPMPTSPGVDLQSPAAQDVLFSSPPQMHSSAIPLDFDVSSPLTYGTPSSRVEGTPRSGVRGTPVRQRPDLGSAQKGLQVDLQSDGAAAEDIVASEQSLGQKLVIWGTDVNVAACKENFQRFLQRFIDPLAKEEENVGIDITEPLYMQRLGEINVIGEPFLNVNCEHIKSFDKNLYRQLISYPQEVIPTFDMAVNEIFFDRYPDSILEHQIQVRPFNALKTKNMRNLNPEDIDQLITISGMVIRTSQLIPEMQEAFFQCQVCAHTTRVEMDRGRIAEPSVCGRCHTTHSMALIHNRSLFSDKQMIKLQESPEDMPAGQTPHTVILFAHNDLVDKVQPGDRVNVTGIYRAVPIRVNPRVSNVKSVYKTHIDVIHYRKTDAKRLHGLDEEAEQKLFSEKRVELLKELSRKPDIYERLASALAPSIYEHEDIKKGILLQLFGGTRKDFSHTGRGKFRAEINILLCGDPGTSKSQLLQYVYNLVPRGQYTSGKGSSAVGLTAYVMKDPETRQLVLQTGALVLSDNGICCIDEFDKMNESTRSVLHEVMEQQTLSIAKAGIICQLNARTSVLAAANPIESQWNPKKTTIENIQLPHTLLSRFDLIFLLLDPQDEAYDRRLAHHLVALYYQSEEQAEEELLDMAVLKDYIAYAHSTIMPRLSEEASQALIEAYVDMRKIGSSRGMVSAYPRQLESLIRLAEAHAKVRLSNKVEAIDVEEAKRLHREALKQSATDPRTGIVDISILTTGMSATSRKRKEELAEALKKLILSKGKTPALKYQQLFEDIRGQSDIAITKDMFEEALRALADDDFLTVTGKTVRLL

Measured: Kd

Chain of Mitogen-activated protein kinase kinase kinase 20 (Q9NYL2 whole entry): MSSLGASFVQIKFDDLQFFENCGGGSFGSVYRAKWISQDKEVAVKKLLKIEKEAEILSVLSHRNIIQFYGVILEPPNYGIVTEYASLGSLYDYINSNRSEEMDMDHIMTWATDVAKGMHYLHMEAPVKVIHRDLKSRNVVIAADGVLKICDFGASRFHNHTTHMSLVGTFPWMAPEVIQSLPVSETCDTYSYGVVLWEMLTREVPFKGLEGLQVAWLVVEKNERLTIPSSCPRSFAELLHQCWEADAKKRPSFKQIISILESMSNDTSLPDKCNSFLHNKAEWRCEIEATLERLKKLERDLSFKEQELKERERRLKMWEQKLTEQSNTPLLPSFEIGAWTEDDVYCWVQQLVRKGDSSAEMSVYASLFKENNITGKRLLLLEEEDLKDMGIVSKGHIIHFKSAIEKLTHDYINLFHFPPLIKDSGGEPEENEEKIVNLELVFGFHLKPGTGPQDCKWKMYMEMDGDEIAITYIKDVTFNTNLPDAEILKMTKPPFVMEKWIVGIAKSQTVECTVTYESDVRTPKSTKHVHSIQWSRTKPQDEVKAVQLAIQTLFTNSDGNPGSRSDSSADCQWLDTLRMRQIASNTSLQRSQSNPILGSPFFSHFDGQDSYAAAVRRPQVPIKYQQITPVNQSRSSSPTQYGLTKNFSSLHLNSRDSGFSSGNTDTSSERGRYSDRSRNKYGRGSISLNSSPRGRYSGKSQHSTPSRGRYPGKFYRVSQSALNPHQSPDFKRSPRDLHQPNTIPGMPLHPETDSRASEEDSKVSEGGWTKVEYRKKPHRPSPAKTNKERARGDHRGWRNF
Chain of Casein kinase I isoform alpha (P48729 whole entry, canonical isoform): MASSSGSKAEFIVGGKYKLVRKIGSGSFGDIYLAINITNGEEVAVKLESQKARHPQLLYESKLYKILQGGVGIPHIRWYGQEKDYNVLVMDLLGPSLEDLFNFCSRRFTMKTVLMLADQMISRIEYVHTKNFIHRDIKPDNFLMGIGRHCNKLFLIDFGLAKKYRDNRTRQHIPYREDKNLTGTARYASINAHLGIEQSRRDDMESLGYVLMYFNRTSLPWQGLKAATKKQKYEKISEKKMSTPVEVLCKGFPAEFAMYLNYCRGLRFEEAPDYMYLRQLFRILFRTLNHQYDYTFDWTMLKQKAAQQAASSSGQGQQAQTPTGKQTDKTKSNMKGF
Chain of 26S proteasome regulatory subunit 6B (P43686 whole entry, canonical isoform): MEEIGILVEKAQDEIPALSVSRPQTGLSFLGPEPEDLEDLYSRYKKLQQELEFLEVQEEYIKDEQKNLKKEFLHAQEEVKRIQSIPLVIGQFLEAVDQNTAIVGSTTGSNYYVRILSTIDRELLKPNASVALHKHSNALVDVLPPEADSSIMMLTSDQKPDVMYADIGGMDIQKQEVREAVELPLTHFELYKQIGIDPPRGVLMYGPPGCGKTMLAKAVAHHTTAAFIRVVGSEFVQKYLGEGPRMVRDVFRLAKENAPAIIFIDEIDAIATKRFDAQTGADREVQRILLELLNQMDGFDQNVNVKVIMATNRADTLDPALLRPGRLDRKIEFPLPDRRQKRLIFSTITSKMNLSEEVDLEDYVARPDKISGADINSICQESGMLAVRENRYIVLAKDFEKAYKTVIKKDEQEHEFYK

CNC(=O)c1cccc(-c2ccc3c(N4CCOC[C@@H]4C)nc(N4CCOC[C@@H]4C)nc3n2)c1 [VISTUSERTIB]
inactive: [1] > 30 µM | [2] > 30 µM | [3] > 30 µM | [4] > 30 µM | [5] > 30 µM | TGF-beta receptor type-1 > 30 µM | [6] > 30 µM

NC(=O)c1ccc(N(C(N)=O)c2c(F)cccc2F)nc1-c1ccc(F)cc1F [VX-702]
inactive: [1] > 30 µM | [2] > 30 µM | [3] > 30 µM | [4] > 30 µM | [5] > 30 µM | TGF-beta receptor type-1 > 30 µM | [6] > 30 µM

COc1cc2ncnc(Nc3ccc(O)cc3)c2cc1OC [WHI-P131]
inactive: [1] > 30 µM | [2] > 30 µM | [3] > 30 µM | [4] > 30 µM | [5] > 30 µM | TGF-beta receptor type-1 > 30 µM | [6] > 30 µM
